The text below walks through data of patent publication US11826364B2, “Treatment for epilepsy” (Katholieke Universiteit Leuven, priority 2017, dated 2023).

In one data set the test system is NMRI mice. The experiment in a line: Mouse 6-Hz (44 mA) psychomotor seizure model. The data set is classed as in vivo. The note with it: 30 min before stimulation; for mean seizure duration: Example 7; for mean seizure duration (±SD): Example 8. Here is the method: Experiments were performed as described in Copmans et al. (2018) ACS chemical neuroscience. […] Mice were manually restrained and a drop of ocular anesthetic (0.5% lidocaine) was applied to the corneas before stimulation. Following electrical current stimulation, the mouse was released in a transparent cage for behavioral observation, which was video-recorded. […] In addition, facial and mouth jerking as well as head nodding were observed occasionally. Seizure durations were measured during the experiment by experienced researchers, familiar with the different seizure behaviors. In addition, seizure durations were determined by blinded video analysis to confirm or correct the initial observations. Data are expressed as mean±SD.

In data set [1] the test system is zebrafish larvae. In words: Non-invasive local field potential (LFP) recordings from the optic tectum, zebrafish PTZ seizure model. The data set is classed as in vivo, zebrafish (Danio rerio). The note with it: MTC (20 μg/mL); 2 hours incubation; 10 min recording. Here is the method:
Non-invasive LFP recordings were measured from the midbrain (optic tectum) of 7 dpf zebrafish larvae pre-incubated with VHC only, PTZ only, compound and VHC, or compound and PTZ. Experiments were performed as described in Copmans et al. (2018) Neurochem. Int. 112, 124-133;
Copmans (2018) ACS chemical neuroscience. In brief, larvae were incubated for approximately 2 hours with VHC (1% DMSO) or test compound (1% DMSO) in a 100 μL volume. After incubation, an equal volume of VHC (embryo medium) or 40 mM PTZ (20 mM working concentration) was added to the well for 15 minutes prior to recording. These steps occurred at 28° C., while further manipulation and electrophysiological recordings occurred at room temperature (±21° C.). The larva was embedded in 2% low melting point agarose (Invitrogen) and the signal electrode (an electrode inside a soda-glass pipet (1412227, Hilgenberg) pulled with a DMZ Universal Puller (Zeitz, Germany), diameter±20 microns, containing artificial cerebrospinal fluid (ACSF: 124 mM NaCl, 10 mM glucose, 2 mM KCl, 2 mM MgSO4, 2 mM CaCl2, 1.25 mM KH2PO4, and 26 mM NaHCO3, 300-310 mOsmols)) was positioned on the skin covering the optic tectum. A differential extracellular amplifier (DAGAN, USA) amplified the voltage difference between the signal (measured by the signal electrode) and the reference electrode. The differential signal was band pass filtered at 0.3-300 Hz and digitized at 2 kHz via a PCI-6251 interface (National instruments, UK) using WinEDR (John Dempster, University of Strathclyde, UK). A grounding electrode grounded the electrical system. All electrodes were connected with ACSF. Each recording lasted 600 seconds. Manual analysis was completed by quantification of the number, cumulative duration, and mean duration of epileptiform-like events with Clampfit 10.2 software (Molecular Devices Corporation, USA). An electrical discharge was considered epileptiform if it was a poly-spiking event comprising at least 3 spikes with a minimum amplitude of three times the baseline amplitude and a duration of at least 100 milliseconds. Data are expressed as mean±SD.

The subject of data set [2] is zebrafish larvae. In words: Toxicity evaluation, maximum tolerated concentration (MTC) in zebrafish larvae. The data set is classed as in vivo, zebrafish (Danio rerio). The following applies: highest concentration without death, toxicity or locomotor impairment. Here is the method: Maximum tolerated concentration (MTC) was determined prior to further experiments and used as the highest test concentration. Experiments were described as described in Copmans et al. (2018) ACS chemical neuroscience. MTC was investigated by exposing 12 larvae of 6 dpf to a range of concentrations in a 100 μl volume during 18 hours. The following parameters were investigated after 2 and 18 hours of exposure: touch response, morphology, posture, edema, signs of necrosis, swim bladder, and heartbeat.

A short description of data set [3]: Solubility in the injection solvent (PEG200:DMSO 1:1). The data set is classed as physicochemical. The note with it: 20 mg/kg dose. Here is the method:
For experiments with zebrafish larvae, dry samples and compounds were dissolved in 100% dimethyl sulfoxide (DMSO, spectroscopy grade) as 100-fold concentrated stocks and diluted in embryo medium to a final concentration of 1% DMSO content, except for PTZ which was dissolved in embryo medium (0% DMSO). Control groups were treated with 1% DMSO (VHC) in accordance with the final solvent concentration of tested samples or compounds. For mice experiments, a mixture of poly-ethylene glycol M.W. 200 (PEG200) and 100% DMSO (spectroscopy grade) (1:1 PEG200:DMSO) was used as solvent and VHC. Pentylenetetrazole and valproate were purchased from Sigma-Aldrich.

The subject of data set [4] is zebrafish larvae. In words: Zebrafish pentylenetetrazole (PTZ) seizure model, behavioral analysis. The data set is classed as in vivo, zebrafish (Danio rerio). The note with it: 2 hours incubation; for antiseizure activity at lower concentrations: MTC/2 and MTC/4. Here is the method:
Experiments were performed as [Add references please: Copmans (2018), ACS chemical neuroscience; Copmans et al. (2018) Neurochem. Int. 112, 124-133; Afrikanova et al. (2013) PLoS One 8, e54166; Orellana-Paucar et al. (2012) Epilepsy Behav 24, 14-22]. In brief, a single 7 dpf larva was placed in each well of a 96-well plate and treated with either VHC (1% DMSO) or test compound in a 100 μl volume. Larvae were incubated in dark for 2 hours at 28° C., whereafter 100 μl of either VHC (embryo medium) or 40 mM PTZ (20 mM working concentration) was added to each well. Next, within 5 minutes the 96-well plate was placed in an automated tracking device (ZebraBox Viewpoint, France) and larval behavior was video recorded for 30 minutes. The complete procedure was performed in dark conditions using infrared light. Total locomotor activity was recorded by ZebraLab software (Viewpoint, France) and expressed in actinteg units, which is the sum of pixel changes detected during the defined time interval (5 minutes). Larval behavior was depicted as mean actinteg units per 5 minutes in the 30 minute recording period and over consecutive time intervals. Data are expressed as mean±SD for single experiments with regards to screening, and as mean±SEM for single experiments and for independent experiments of which the means or data are pooled.
In the first secondary screen three replicate wells were used per sample (100 μg/mL) tested and each experimental plate contained 12 internal control wells. In the second secondary screen six replicate wells were used per sample and concentration tested (100, 33, and 11 μg/mL), again 12 internal control wells were used per experimental plate.

For `CC(C)=C1Oc2c(ccc3cc(C)ncc23)C1=O` [TMC-120B], in the data set with NMRI mice (2.5 mg/kg i.p.), the mean seizure duration came to 27 s and the “mean seizure duration (±SD)” value is 27 s. In the data set on NMRI mice (5 mg/kg i.p.), the mean seizure duration was 23.5 s and the “mean seizure duration (±SD)” value worked out at 23.5 s. Besides, in the data set with NMRI mice (10 mg/kg i.p.), the mean seizure duration worked out at 10 s and the “mean seizure duration (±SD)” value amounted to 10 s. Also, in the data set with NMRI mice (20 mg/kg i.p.), the mean seizure duration was 27.5 s and the “mean seizure duration (±SD)” value turned out to be 27.5 s. For the same compound, in the data set on zebrafish larvae [1], the “cumulative duration of PTZ-induced epileptiform events” value is “significantly lowered” and the “number of PTZ-induced epileptiform events” value is given as “significantly lowered”. Besides, in the data set with zebrafish larvae [2], the “maximum tolerated concentration (MTC)” value turned out to be 20 µg/mL. For the same compound, the “solubility in the solvent” value in data set [3] was “poor solubility”. Besides, the “antiseizure activity at lower concentrations” value with zebrafish larvae [4] was “No significant antiseizure activity”. For the same compound, in the data set with zebrafish larvae [4] (at MTC), the “PTZ-induced seizure behavior in 5 min time intervals” value is “significant reduction” and the “PTZ-induced seizure behavior in the 30 min recording period” value is on record as “significantly lowered”.

As for `Cc1cc2ccc3c(c2cn1)OC(C(C)C)C3=O` (stereo not shown) [TMC-120A], the “mean seizure duration (±SD)” value in the data set on NMRI mice (1.25 mg/kg i.p.) is 15 s. The “mean seizure duration (±SD)” value in the data set with NMRI mice (2.5 mg/kg i.p.) was determined as 13 s. In addition, the “mean seizure duration (±SD)” value in the data set on NMRI mice (5 mg/kg i.p.) was found to be 20 s. The “mean seizure duration (±SD)” value in the data set on NMRI mice (10 mg/kg i.p.) was found to be 17 s. Moreover, in the data set with zebrafish larvae [1], the “cumulative duration of PTZ-induced epileptiform events” value was “significantly lowered”, the “number of PTZ-induced epileptiform events” value is on record as “significantly lowered” and the “percentage of larvae with PTZ-induced epileptiform activity” value was “significantly lowered the percentage of larvae with PTZ-induced epileptiform activity by more than half”. Further, the “maximum tolerated concentration (MTC)” value in the data set with zebrafish larvae [2] stood at 20 µg/mL. Besides, the “solubility in the solvent” value in data set [3] is on record as “poor solubility”. Besides, the “antiseizure activity at lower concentrations” value in the data set with zebrafish larvae [4] is given as “No significant antiseizure activity”. Moreover, in the data set on zebrafish larvae [4] (at MTC), the “PTZ-induced seizure behavior in 5 min time intervals” value is “significant reduction” and the “PTZ-induced seizure behavior in the 30 min recording period” value is on record as “not TMC-120A, significantly lowered”.

Turning to `CC1=Cc2ccc3c(c2CO1)O[C@@H](C(C)C)C3=O` [penicisochroman G], in the data set with zebrafish larvae [4] (at the tested concentration), the “PTZ-induced seizure behavior in 5 min time intervals” value was “significant reduction”.

With `CC1=Cc2ccc3c(c2CO1)OC(=C(C)C)C3=O` [ustusorane B], the “PTZ-induced seizure behavior in 5 min time intervals” value in the data set on zebrafish larvae [4] (at the tested concentration) was “significant reduction”.

`Cc1cc2ccc3c(c2cn1)OC(O)(C(C)C)C3=O` (stereo not shown) [TMC-120C]: in the data set on zebrafish larvae [4] (at the tested concentration), the “PTZ-induced seizure behavior in 5 min time intervals” value is “significant reduction” and the “PTZ-induced seizure behavior in the 30 min recording period” value is given as “lowered PTZ-induced seizure behavior”.
